Literature values as cited in US20060046961A1, “Controlled and directed local delivery of anti-inflammatory compositions” (priority 2004, published 2006).

Test system: PGE2 production
Details: cell culture

COc1ccc2cc(CC(=O)O)ccc2c1 [6-methoxy-2-napthylacetic acid]
PGE2 production: suppress | local inflammation: suppress
